What was measured:
Settings in all cases: 2 µM
[1] = The drug is tested on Proteus penneri strain: ATCC35198 for biotransformation. The drug concentrations were measured before and after a 12-h incubation by liquid-chromatography-coupled mass spectrometry (LC–MS)
[2] = target: T1, 3-oxo-5-alpha-steroid 4-dehydrogenase (Bacteroides thetaiotaomicron, UniProt Q8A618); test: (§1) The drug is tested on Bacteroides thetaiotaomicron strain: VPI-5482 for biotransformation. The drug concentrations were measured before and after a 12-h incubation by liquid-chromatography-coupled mass spectrometry (LC–MS); assay type: ADME; set-up: dose 2 uM
T1 sequence (Q8A618 whole entry): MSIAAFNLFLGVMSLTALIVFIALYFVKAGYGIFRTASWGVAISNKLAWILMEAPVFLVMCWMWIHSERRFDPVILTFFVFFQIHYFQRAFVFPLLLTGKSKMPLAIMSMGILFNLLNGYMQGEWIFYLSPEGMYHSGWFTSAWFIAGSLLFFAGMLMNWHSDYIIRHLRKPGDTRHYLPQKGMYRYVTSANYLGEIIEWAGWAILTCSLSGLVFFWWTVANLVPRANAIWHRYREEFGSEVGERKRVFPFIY

Lipoprotein = target: T2, Lipoprotein (Bacteroides thetaiotaomicron, UniProt Q8A343); test: as §1; assay type: ADME; set-up: dose 2 uM
T2 sequence (Q8A343 whole entry): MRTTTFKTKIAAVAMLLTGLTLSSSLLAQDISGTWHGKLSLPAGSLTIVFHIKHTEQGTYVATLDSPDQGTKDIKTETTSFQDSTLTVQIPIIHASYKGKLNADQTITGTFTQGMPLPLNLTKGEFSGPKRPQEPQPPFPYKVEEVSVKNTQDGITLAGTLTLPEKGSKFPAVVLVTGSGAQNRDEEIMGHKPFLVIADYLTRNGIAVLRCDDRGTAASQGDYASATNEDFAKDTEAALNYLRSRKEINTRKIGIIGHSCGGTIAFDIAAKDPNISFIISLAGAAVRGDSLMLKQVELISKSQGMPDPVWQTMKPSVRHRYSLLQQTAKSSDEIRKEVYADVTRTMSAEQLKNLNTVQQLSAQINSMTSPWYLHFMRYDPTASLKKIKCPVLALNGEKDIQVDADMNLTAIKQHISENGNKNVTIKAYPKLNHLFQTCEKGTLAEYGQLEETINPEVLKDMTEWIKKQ

Lipase = target: T3, Lipase (Bacteroides thetaiotaomicron, UniProt Q8A3J3); test: as §1; assay type: ADME; set-up: dose 2 uM
T3 sequence (Q8A3J3 whole entry): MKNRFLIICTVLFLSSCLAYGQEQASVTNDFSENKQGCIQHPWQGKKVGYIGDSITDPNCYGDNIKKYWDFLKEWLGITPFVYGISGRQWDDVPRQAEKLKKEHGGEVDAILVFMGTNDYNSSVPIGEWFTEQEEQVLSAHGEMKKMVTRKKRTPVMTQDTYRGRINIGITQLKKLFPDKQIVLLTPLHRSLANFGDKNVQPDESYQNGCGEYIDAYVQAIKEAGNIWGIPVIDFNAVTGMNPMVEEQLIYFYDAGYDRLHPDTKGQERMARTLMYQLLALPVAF

[3] = target: T4, Lipolytic enzyme, G-D-S-L family (Bacteroides thetaiotaomicron, UniProt Q8A0E6); test: as §1; assay type: ADME; set-up: dose 2 uM
T4 sequence (Q8A0E6 whole entry): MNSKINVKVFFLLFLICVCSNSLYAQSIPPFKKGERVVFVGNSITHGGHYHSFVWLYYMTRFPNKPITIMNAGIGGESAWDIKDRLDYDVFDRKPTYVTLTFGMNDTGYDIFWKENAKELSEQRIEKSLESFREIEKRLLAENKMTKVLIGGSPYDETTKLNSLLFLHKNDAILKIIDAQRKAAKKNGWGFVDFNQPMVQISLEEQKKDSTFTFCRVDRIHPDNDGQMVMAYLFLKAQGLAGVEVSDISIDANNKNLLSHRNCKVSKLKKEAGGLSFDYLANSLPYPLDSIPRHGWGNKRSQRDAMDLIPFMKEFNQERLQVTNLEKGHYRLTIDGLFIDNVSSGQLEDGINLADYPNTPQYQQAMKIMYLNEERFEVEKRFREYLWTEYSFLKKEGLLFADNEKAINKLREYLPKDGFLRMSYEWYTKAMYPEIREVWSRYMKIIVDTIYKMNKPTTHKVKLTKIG

[4] = target: T5, Nitroreductase-like protein (Bacteroides thetaiotaomicron, UniProt Q8AB93); test: as §1; assay type: ADME; set-up: dose 2 uM
T5 sequence (Q8AB93 whole entry): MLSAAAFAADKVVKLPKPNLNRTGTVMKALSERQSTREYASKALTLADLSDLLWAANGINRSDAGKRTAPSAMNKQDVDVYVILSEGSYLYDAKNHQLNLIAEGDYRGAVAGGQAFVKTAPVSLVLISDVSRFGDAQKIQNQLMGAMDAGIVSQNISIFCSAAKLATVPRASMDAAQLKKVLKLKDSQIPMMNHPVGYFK

Endoglucanase E (EGE) = target: T6, Endoglucanase E (EGE) (Bacteroides thetaiotaomicron, UniProt Q8AAL9); test: as §1; assay type: ADME; set-up: dose 2 uM
T6 sequence (Q8AAL9 whole entry): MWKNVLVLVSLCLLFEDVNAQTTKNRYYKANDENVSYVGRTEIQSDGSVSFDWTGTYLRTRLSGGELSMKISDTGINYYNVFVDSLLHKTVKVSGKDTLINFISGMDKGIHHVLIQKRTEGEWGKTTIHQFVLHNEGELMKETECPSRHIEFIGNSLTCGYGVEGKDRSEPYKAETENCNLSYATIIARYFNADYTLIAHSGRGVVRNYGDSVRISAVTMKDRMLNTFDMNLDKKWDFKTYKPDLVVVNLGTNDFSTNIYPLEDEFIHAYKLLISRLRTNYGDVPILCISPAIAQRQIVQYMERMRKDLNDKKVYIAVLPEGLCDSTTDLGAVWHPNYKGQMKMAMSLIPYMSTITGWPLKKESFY

[5] = target: T7, NADH dehydrogenase/NAD(P)H nitroreductase (Bacteroides thetaiotaomicron, UniProt Q8A8L9); test: as §1; assay type: ADME; set-up: dose 2 uM
T7 sequence (Q8A8L9 whole entry): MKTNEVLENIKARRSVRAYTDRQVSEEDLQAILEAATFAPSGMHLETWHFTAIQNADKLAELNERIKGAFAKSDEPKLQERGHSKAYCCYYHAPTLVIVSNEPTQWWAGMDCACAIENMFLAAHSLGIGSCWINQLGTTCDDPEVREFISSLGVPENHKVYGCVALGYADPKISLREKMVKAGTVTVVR

Nitroreductase = target: T8, Nitroreductase (Bacteroides thetaiotaomicron, UniProt Q8A911); test: as §1; assay type: ADME; set-up: dose 2 uM
T8 sequence (Q8A911 whole entry): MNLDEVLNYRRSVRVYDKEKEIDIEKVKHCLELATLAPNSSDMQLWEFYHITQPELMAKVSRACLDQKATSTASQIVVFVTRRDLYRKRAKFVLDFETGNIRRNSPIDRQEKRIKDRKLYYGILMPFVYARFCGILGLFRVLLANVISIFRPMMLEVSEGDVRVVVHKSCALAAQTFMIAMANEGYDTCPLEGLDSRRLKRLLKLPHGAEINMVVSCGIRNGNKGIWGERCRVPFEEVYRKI

[6] = The drug is tested on the gut metagenome community of MV14 with ENA study accession number: PRJEB31790 and ENA sample accession number: SAMEA5537495 for biotransformation. The drug concentrations were measured over 9 timepoints collected between 0 and 24 hours of incubation by liquid-chromatography-coupled mass spectrometry (LC–MS); assay type: ADME; set-up: dose 2 uM, timepoint 0, 1, 2, 4, 6, 8, 12, 18, 24 hours

Row | Compound | Bacterial Biotransformation [1] | Bacterial Biotransformation [2] | Bacterial Biotransformation (Lipoprotein) | Bacterial Biotransformation (Lipase) | Bacterial Biotransformation [3] | Bacterial Biotransformation [4] | Bacterial Biotransformation (Endoglucanase E (EGE)) | Bacterial Biotransformation [5] | Bacterial Biotransformation (Nitroreductase) | Bacterial Biotransformation [6]
1 | CN1[C@@H]2CC[C@H]1C[C@@H](OC(=O)C(CO)c1ccccc1)C2 (some centres not stated) [ATROPINE] | Compound NOT metabolized | – | – | – | – | – | – | – | – | –
2 | Cc1ccc(NC(=O)c2ccc(CN3CCN(C)CC3)cc2)cc1Nc1nccc(-c2cccnc2)n1 [IMATINIB] | Compound NOT metabolized | – | – | – | – | – | – | – | – | –
3 | C#C[C@]1(OC(C)=O)CC[C@H]2[C@@H]3CCC4=CC(=O)CC[C@@H]4[C@H]3CC[C@@]21C [NORETHINDRONE ACETATE] | – | Compound metabolized | Compound NOT metabolized | Compound NOT metabolized | Compound NOT metabolized | Compound NOT metabolized | Compound NOT metabolized | Compound NOT metabolized | Compound NOT metabolized | Compound metabolized
4 | CC(=O)OCC(CCn1cnc2cnc(N)nc21)COC(C)=O [FAMCICLOVIR] | – | Compound NOT metabolized | Compound NOT metabolized | Compound NOT metabolized | Compound NOT metabolized | Compound NOT metabolized | Compound NOT metabolized | Compound NOT metabolized | Compound NOT metabolized | Compound metabolized
5 | C#C[C@]1(O)CC[C@H]2[C@@H]3CCC4=CC(=O)CC[C@@H]4[C@H]3CC[C@@]21CC [LEVONORGESTREL] | – | Compound metabolized | Compound NOT metabolized | Compound NOT metabolized | Compound NOT metabolized | Compound NOT metabolized | Compound NOT metabolized | Compound NOT metabolized | Compound NOT metabolized | –
6 | COC(=O)Nc1nc2ccc(C(=O)c3ccccc3)cc2[nH]1 [MEBENDAZOLE] | Compound NOT metabolized | – | – | – | – | – | – | – | – | –
7 | C#C[C@]1(OC(C)=O)CC[C@H]2[C@@H]3CCC4=C/C(=N/O)CC[C@@H]4[C@H]3CC[C@@]21CC [NORGESTIMATE] | Compound NOT metabolized | – | – | – | – | – | – | – | – | –
8 | COc1ccc([C@@H]2Sc3ccccc3N(CCN(C)C)C(=O)[C@@H]2OC(C)=O)cc1 [DILTIAZEM] | – | Compound NOT metabolized | Compound NOT metabolized | Compound NOT metabolized | Compound NOT metabolized | Compound NOT metabolized | Compound NOT metabolized | Compound NOT metabolized | Compound NOT metabolized | Compound NOT metabolized
9 | O=C(CCCN1CCC(O)(c2ccc(Cl)cc2)CC1)c1ccc(F)cc1 [HALOPERIDOL] | Compound NOT metabolized | – | – | – | – | – | – | – | – | –
10 | CC(=O)OCC(=O)[C@@]1(OC(C)=O)[C@@H](C)C[C@H]2[C@@H]3C[C@H](F)C4=CC(=O)C=C[C@]4(C)[C@@]3(F)[C@@H](O)C[C@@]21C [DIFLORASONE DIACETATE] | – | Compound NOT metabolized | Compound NOT metabolized | – | Compound NOT metabolized | Compound NOT metabolized | Compound NOT metabolized | Compound NOT metabolized | Compound NOT metabolized | –

— ChEMBL document CHEMBL5303573, “Mapping human microbiome drug metabolism by gut bacteria and their genes” (Nature, 2019)
